Experimental data as given in PMC8587515, “Cytotoxic and Anti-Inflammatory Activities of Dihydroisocoumarin and Xanthone Derivatives from Garcinia picrorhiza” (Molecules, 2021).
Like-named read-outs stand apart in the source and are kept apart here. One block for each compound: values may come before it.

Key:
[1] = tested on: NO production in LPS-IFN-γ-induced RAW 264.7 macrophages; test: NO production inhibition assay (Griess), RAW 264.7; format: cell-based, mouse
Description: (§1) Compounds 1–8 were screened for their inhibitory effects on nitric oxide production in LPS-IFN-γ activated RAW 264.7 macrophages and BV-2 microglial cells at a final concentration of 50 µM. […] A deprenylated furanoxanthone structure with ortho hydroxy group in ring B as in 7 might be important to enhance the inhibitory effect when compared to 6 and 8.
(§2) The iNOS inhibitory activity of the isolated compounds and respective cytotoxicity was determined using a previously described protocol. Briefly, BV-2 mouse microglial (25,000 cells/well) and RAW 264.7 mouse macrophage (100,000 cells/well) cell lines were seeded into 96-well plates in high glucose Dulbecco’s Modified Eagle’s Medium (DMEM, Gibco) containing 4 mM L-glutamine, 10% FBS, 2% HEPES, 1% penicillin/streptomycin, and 0.5% amphotericin B. After incubation for 24 h at 37 °C in a 5% CO2 humidified atmosphere, the cells were stimulated with 0.05% LPS (Sigma) and 0.025% interferon-γ (Roche Diagnostics, Mannheim, Germany) and treated with different concentrations (5–100 μM) of the tested compounds. The level of NO production in cell culture supernatants was determined using Griess reagent (Sigma) by photocolorimetric analysis after 16 h of incubation, using a Hidex Sense Microplate Reader (Hidex, Turku, Finland). Fifty microliters of XTT reagent (Sigma, Kit II) was then added into the same plates for cell viability measurement after 60 min incubation. L-NMMA (Alexis, Grünberg, Germany) 100 µM was used as the positive control, while 1% DMSO and digitonin (Roth, Karlsruhe, Germany) 400 µM were used as the vehicle and negative control, respectively. The assays were conducted in triplicates and repeated in two independent experiments. IC50 values were determined by graphical analysis using GraphPad Prism 7 (GraphPad Software, La Jolla, CA, USA).

[2] = tested on: NO production in LPS-IFN-γ-induced BV-2 microglial cells; test: NO production inhibition assay (Griess), BV-2; format: cell-based, mouse
Description: as §1, §2

[3] = target: T1, COX-2 (human recombinant PGHS-2) (Homo sapiens, UniProt P35354); test: COX-2 enzyme inhibition assay (PGE2 ELISA); format: biochemical; details: mean ± SD (n = 4)
T1 construct: purchased Cayman Chemical Co., Ann Arbor, MI, USA
T1 sequence (P35354 18-604): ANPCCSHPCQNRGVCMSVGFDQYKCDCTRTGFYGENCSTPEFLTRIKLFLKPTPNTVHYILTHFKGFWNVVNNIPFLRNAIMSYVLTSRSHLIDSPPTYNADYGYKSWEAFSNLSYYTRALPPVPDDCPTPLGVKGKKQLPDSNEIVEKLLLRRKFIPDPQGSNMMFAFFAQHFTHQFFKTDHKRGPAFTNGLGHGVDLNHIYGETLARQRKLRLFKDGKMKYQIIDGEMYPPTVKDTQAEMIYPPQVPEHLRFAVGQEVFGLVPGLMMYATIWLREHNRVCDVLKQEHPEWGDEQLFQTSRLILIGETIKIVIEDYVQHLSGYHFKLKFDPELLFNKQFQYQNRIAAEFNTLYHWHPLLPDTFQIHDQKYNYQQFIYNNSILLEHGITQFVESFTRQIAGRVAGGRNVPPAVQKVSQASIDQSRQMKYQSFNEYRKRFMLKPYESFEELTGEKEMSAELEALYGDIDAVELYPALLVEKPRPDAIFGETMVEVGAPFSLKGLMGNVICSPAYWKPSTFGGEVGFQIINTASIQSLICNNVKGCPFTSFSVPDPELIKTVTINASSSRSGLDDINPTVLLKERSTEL
Description: (§3) The anti-inflammatory effects of the isolated compounds were also screened on COX-1 and COX-2 enzymes inhibition at a final concentration of 20 µM.
(§4) Purified PGHS-1 from ram seminal vesicles for COX-1 and human recombinant PGHS-2 for COX-2 (Cayman Chemical Co., Ann Arbor, MI, USA) were used for the COX inhibition assays. Experiments were performed in a 96-well plate format, as previously described. Briefly, the incubation mixture contained 180 µL of 0.1 M TRIS/HCl-buffer pH 8.0 (Roth, Karlsruhe, Germany), 50 µM Na2EDTA (only for COX-2, Titriplex III, Merck, Darmstadt, Germany), 18 mM L-epinepherine bitartrate (Fluka, Buchs, Switzerland), 5 µM porcine hematin (MP Biomedicals LLC, Solon, OH, USA), and COX-1 or COX-2 enzymes (0.2 U/well). Ten microliters of tested compounds (dissolved in DMSO with a final concentration of 20 µM) was added and the mixture was pre-incubated for 5 min at room temperature. Thereafter, 10 µL of 5 µM arachidonic acid (Ann Arbor, Michigan USA) was added to the mixture and incubated for 20 min at 37 °C. The reaction was subsequently stopped by adding 10 µL of 10% (v/v) formic acid. The concentration of PGE2 generated in the reaction was quantitatively measured by a competitive PGE2 ELISA kit (Enzo Life Sciences Inc., Farmingdale, NY, USA) according to the manufacturer’s protocol and previous procedure. The absorbance at 405 nm was measured using a Hidex Sense Microplate Reader (Hidex, Turku, Finland). […] The assays were performed in duplicates and repeated in two independent experiments.

[4] = target: T2, COX-1 (purified PGHS-1 from ram seminal vesicles) (Ovis aries, UniProt P05979); test: COX-1 enzyme inhibition assay (PGE2 ELISA); format: biochemical; details: mean ± SD (n = 4)
T2 construct: Purified PGHS-1 from ram seminal vesicles for COX-1; purchased Cayman Chemical Co., Ann Arbor, MI, USA; host or cells: ram seminal vesicles (tissue-purified)
T2 sequence (P05979 25-600): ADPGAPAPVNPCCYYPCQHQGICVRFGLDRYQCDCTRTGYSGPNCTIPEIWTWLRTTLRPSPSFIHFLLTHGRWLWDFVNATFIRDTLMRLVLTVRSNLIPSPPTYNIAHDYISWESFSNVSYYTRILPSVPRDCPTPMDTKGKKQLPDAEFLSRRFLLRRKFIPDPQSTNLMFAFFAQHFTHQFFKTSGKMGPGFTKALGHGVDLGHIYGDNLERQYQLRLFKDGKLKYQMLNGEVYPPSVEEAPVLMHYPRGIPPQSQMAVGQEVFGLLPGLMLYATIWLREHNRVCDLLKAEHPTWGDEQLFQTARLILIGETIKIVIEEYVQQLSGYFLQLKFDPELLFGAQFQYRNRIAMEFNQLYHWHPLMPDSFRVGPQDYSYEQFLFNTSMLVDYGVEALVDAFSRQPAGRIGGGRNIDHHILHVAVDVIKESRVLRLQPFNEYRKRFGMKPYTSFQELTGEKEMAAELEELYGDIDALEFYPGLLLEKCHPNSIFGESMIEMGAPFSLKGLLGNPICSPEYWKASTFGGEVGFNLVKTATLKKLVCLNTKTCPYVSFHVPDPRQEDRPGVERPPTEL
Description: as §3, §4

[5] = Cytotoxicity (XTT cell viability), RAW 264.7; format: cell-based; details: mouse, RAW 264.7 macrophage cells, LPS/IFN-γ-stimulated, LPS-IFN-γ-induced cells, mean ± SEM (n = 6)
Description: as §1, §2

[6] = Cytotoxicity (XTT cell viability), BV-2; format: cell-based; details: mouse, BV-2 microglial cells, LPS/IFN-γ-stimulated, LPS-IFN-γ-induced cells, mean ± SEM (n = 6)
Description: as §1, §2

[7] = tested on: HeLa S3 (human cervical carcinoma); design: method as in PMID 30153471, PMID 33999337; details: MTT; results based on previous work; read-out: IC50 ± SEM, HeLa S3; cited from earlier work
[8] = tested on: Hep G2 (human hepatocellular carcinoma); design: method as in PMID 30153471, PMID 33999337; details: MTT; results based on previous work; read-out: IC50 ± SEM, Hep G2; cited from earlier work
[9] = tested on: MCF-7 (human breast adenocarcinoma); design: method as in PMID 30153471, PMID 33999337; details: MTT; results based on previous work; read-out: IC50 ± SEM, MCF-7; cited from earlier work
[10] = tested on: HT-29 (human colon adenocarcinoma); design: method as in PMID 30153471, PMID 33999337; key to IC50 ± SEM, HT-29: IC50 ≤ 10 µM = good cytotoxicity; 10 µM < IC50 ≤ 30 µM = weak cytotoxicity; inactive (IC50 > 30 µM); details: MTT, results based on previous work, cited from earlier work
[11] = tested on: KB (human epidermoid carcinoma); design: method as in PMID 30153471, PMID 33999337; details: MTT; results based on previous work; read-out: IC50 ± SEM, KB; cited from earlier work
[12] = tested on: four cancer cells (KB, HeLa S3, MCF-7, and Hep G2); details: HeLa S3, MCF-7, Hep G2, earlier studies, read-out: IC50 values against four cancer cells; cited from earlier work
[13] = tested on: KB (human epidermoid carcinoma); test: MTT cytotoxic activity assay, KB; format: cell-based; details: 72 h, mean ± SEM of three replicates
Description: (§5) The cytotoxic activity of the isolated compounds was evaluated using the MTT viability assay with doxorubicin as the positive control and the results are presented in Table 2.
(§6) The MTT colorimetric method was performed to evaluate cytotoxic activity of the isolated compounds against human epidermoid carcinoma (KB; ATCC CCL17), human cervical carcinoma (HeLa S3; ATCC CCL2-2), human colon adenocarcinoma (HT-29; ATCC HTB-38), human breast adenocarcinoma (MCF-7; ATCC HTB-22), and human hepatocellular carcinoma (Hep G2; ATCC HB-8065) cell lines according to the previous method. The cancer cells were cultured in MEM containing 10% fetal bovine serum in the presence of 100 U/mL penicillin and 100 μg/mL streptomycin sulphate (Gibco, Rockville, MD, USA), seeded in a 96-well plate (3000 cells/well), and pre-incubated at 37 °C for 24 h in a 5% CO2 humidified atmosphere. The tested compounds with serial concentrations (0.3–100 μM) were added and incubated for a further 72 h in the same condition. At the end of treatment, 20 µL of MTT solution (5 mg/mL in PBS, Sigma, St. Louis, MI, USA) was added to each well and further incubated for 3 h. After centrifugation at 1400 rpm for 5 min at 4 °C, the supernatant was decanted and DMSO (100 µL/well) was added to allow formazan product solubilization, which was subsequently measured by a microplate reader (Tecan Trading AG, Switzerland) at wavelength 550 nm. Control cells were treated with 0.1% DMSO. Doxorubicin (tested concentrations: 0.01–3.0 μM, Sigma) was used as the positive control. The results are expressed as the mean values of three replicates for three independent experiments. IC50 values were determined by graphical analysis using SigmaPlot 10 (Systat Software Inc., San Jose, CA, USA), obtained by plotting the cell viability percentage versus sample concentration.

[14] = tested on: HeLa S3 (human cervical carcinoma); test: MTT cytotoxic activity assay, HeLa S3; format: cell-based; details: 72 h, mean ± SEM of three replicates
Description: as §5, §6

[15] = final concentration of 50 µM, preliminary screen

SMILES: [H]/N=C(/NC)NCCC[C@H](N)C(=O)O [L-NMMA, reference compound]
- inhibition at 100 µM ([1]; Mus musculus, RAW264.7, at 100 µM, read-out: inhibition of NO production, RAW 264.7 (positive control)): 64.1%
- inhibition at 100 µM ([2]; Mus musculus, BV-2, at 100 µM, read-out: inhibition of NO production, BV-2 (positive control)): 44.1%

- inhibition at 20 µM [3]: < 10%
- inhibition at 20 µM [4]: 24.2 ± 12.3%
SMILES: COc1c(O)cc2c(c1O)C(=O)O[C@@H](c1ccccc1O)C2 [Compound 3, 2′-hydroxyannulatomarin]

- IC50 ([1]; Mus musculus, RAW264.7, LPS-IFN-γ-induced, 16 h, mean ± SEM (n = 6), read-out: IC50, iNOS (inhibition of NO production), RAW 264.7): 16.4 ± 4.5 µM
- IC50 ([2]; Mus musculus, BV-2, LPS-IFN-γ-induced, 16 h, mean ± SEM (n = 6), read-out: IC50, iNOS (inhibition of NO production), BV-2): 13.8 ± 1.6 µM
SMILES: CC1(C)c2c(cc3oc4ccc(O)c(O)c4c(=O)c3c2O)O[C@@H]1CO [Compound 5, 3′-hydroxycalothorexanthone]
- suppression of NO production, RAW 264.7 [1, 15]: over 70%
- IC50 at 16 h [5]: > 200 µM
- IC50 at 16 h [6]: 74.7 ± 2.1 µM
- suppression of NO production, BV-2 [2, 15]: over 70%

- inhibition at 20 µM [3]: < 10%
- inhibition at 20 µM [4]: 31.2 ± 21.7%
SMILES: C[C@@H]1Oc2cc(O)c3c(=O)c4cccc(O)c4oc3c2C1(C)C [Compound 6, pancixanthone B]
- IC50 [7]: 20.7 ± 0.6 µM
- IC50 [8]: 22.8 ± 0.4 µM
- IC50 [9]: 15.6 ± 0.3 µM
- IC50 ± SEM, HT-29 [10]: inactive
- IC50 [11]: 12.1 ± 0.1 µM

- inhibition at 20 µM [3]: < 10%
- inhibition at 20 µM [4]: 24 ± 15%
SMILES: CC(C)=CCc1c2c(c3oc4c(O)c(O)ccc4c(=O)c3c1O)C(C)(C)[C@H](C)O2 [Compound 8, formoxanthone C]
- IC50 [12]: < 10 µM
- IC50 [7]: 0.3 ± 0.1 µM
- IC50 [8]: 3.8 ± 0.5 µM
- IC50 [9]: 4.9 ± 0.4 µM
- IC50 ([10]; read-out: IC50 ± SEM, HT-29): 21.9 ± 1.2 µM
- IC50 [11]: 0.2 ± 0.1 µM

SMILES: COc1c(O)ccc2c(=O)c3c(O)cc(O)cc3oc12 [Compound 13, 1,3,6-trihydroxy-5-methoxyxanthone]
- IC50 [13]: 11.4 ± 1.7 µM
- IC50 [14]: 15.2 ± 1.3 µM

- inhibition at 20 µM [3]: < 10%
- inhibition at 20 µM [4]: 18.3 ± 12.1%
SMILES: COc1cc(O)c2c(=O)c3ccc(O)c(OC)c3oc2c1 [Compound 14, 1,6-dihydroxy-3,5-dimethoxyxanthone]

- % Inhibition at 20 µM, COX-2 [3]: 10.4 ± 5.0%
- inhibition at 20 µM [3]: > 10%
- inhibition at 20 µM [4]: < 10%
SMILES: COc1c(O)cc2c(c1O)C(=O)O[C@@H](c1ccccc1)C2 [Compound 2, (−)-annulatomarin]

- inhibition at 20 µM [3]: < 10%
- inhibition at 20 µM [4]: 22.6 ± 2.2%
SMILES: O=c1c2cccc(O)c2oc2ccc(O)c(O)c12 [Compound 9, 1,2,5-trihydroxyxanthone]
